Results published in patent US7728146B2, “Enzyme inhibitors” (Probiodrug AG, priority 2006, dated 2010).

Each molecule was assayed against DP IV (Homo sapiens, UniProt P27487) (assay: DP IV inhibition IC50, parallel-synthesis compounds tested directly following synthesis (without purification)). Conditions: DP IV inhibition; compounds of formula (Ib) from parallel synthesis, tested directly following synthesis (without purification); read-out: IC50.
Format: biochemical
Design: IC50 DP4; other: tested directly following parallel synthesis, without purification; compounds of formula (Ib) from parallel synthesis, tested directly following synthesis
Description: Compounds were immediately tested regarding their activity as DP IV inhibitors.
Substances are screened for inhibition of dipeptidyl peptidase (DP IV) by their ability to inhibit the hydrolysis of the DP IV specific substrate Glycyl-Prolyl-4-Nitroanilide (Gly-Pro-pNA). All compounds are diluted in DMSO and IC50 will be determined with 11 serial dilutions (1:2) starting with an final concentration of 100 μM. The final DMSO concentration in the assay is 5% (v/v). The method was automated using a Tecan Genesis Freedom liquid handler and a Genius Pro (Tecan) microplate reader.
DP IV from porcine kidney (pDP IV) or recombinant human DP IV (rhDP IV) is diluted in HEPES buffer to a final activity of approximately 40-50 μU*ml^−1. The DP IV is stored in a cooling rack (4° C.) on the liquid handler.
The assay may becarried out at room temperature using Freedom liquid handler connected with a Genios Pro microplate reader. Each sample is measured in duplicate. Each sample stock solution is prediluted with DMSO in a ratio of 1:5 in a polypropylen 96-well plate. From this predilution 10 serial (1:2) dilutions in DMSO are prepared. 13.5 μl of the 11 DMSO dilutions and DMSO alone are transferred to the measurement microplate (duplicates) and 86.5 μl water, 100 μl HEPES buffer and 50 μl substrate solution are added to each well. The enzymatic reaction is started by addition of 20 μl enzyme solution to each well, and then the microplate is immediately transferred to the microplate reader.
After short mixing (20 s) the release of 4-Nitroanilin (pNA) is monitored at 405 nm for 30 cycles (approx. 18 min).
Post assay calculations are done by the Magellan (Tecan) and Graphit Software. The linear slopes are calculated for each well and averaged for the duplicates. The residue activities are calculated in relation to a sample containing only solvent instead of inhibitor and expressed in %. Residue activities are plotted against the log of inhibitor concentrations and IC50 is calculated by an 4-parameter fitting ranging from 0 to 100%.

Structure (SMILES) | IC50 [µM]
NCc1c(-c2ccc(Cl)cc2Cl)ncn1Cc1cc(F)cc(C(F)(F)F)c1 [3b, C-[5-(2,4-Dichloro-phenyl)-3-(3-fluoro-5-trifluoromethyl-benzyl)-3H-imidazol-4-yl]-methylamine] | 2.8
NCc1c(-c2ccc(Cl)cc2Cl)ncn1CCNC1CCCCC1 [4b, {2-[5-Aminomethyl-4-(2,4-dichloro-phenyl)-imidazol-1-yl]-ethyl}-cyclohexyl-amine] | 10
COc1ccc(Cn2cnc(-c3ccc(Cl)cc3Cl)c2CN)cc1OC [5b, C-[5-(2,4-Dichloro-phenyl)-3-(3,4-dimethoxy-benzyl)-3H-imidazol-4-yl]-methylamine] | 19.9
CC(C)N(CCn1cnc(-c2ccc(Cl)cc2Cl)c1CN)C(C)C [6b, {2-[5-Aminomethyl-4-(2,4-dichloro-phenyl)-imidazol-1-yl]-ethyl}-diisopropyl-amine] | 10.9
NCc1c(-c2ccc(Cl)cc2Cl)ncn1CCc1cccnc1 [9b, C-[5-(2,4-Dichloro-phenyl)-3-(2-pyridin-3-yl-ethyl)-3H-imidazol-4-yl]-methylamine] | 7.3
NCc1c(-c2ccc(Cl)cc2Cl)ncn1CCN1CCOCC1 [10b, C-[5-(2,4-Dichloro-phenyl)-3-(2-morpholin-4-yl-ethyl)-3H-imidazol-4-yl]-methylamine] | 12.7
Cc1cc(Cn2cnc(-c3ccc(Cl)cc3Cl)c2CN)no1 [13b, C-[5-(2,4-Dichloro-phenyl)-3-(5-methyl-isoxazol-3-ylmethyl)-3H-imidazol-4-yl]-methylamine] | 20.8
NCc1c(-c2ccc(Cl)cc2Cl)ncn1CCCCCCO [16b, 6-[5-Aminomethyl-4-(2,4-dichloro-phenyl)-imidazol-1-yl]-hexan-1-ol] | 12.7
NCc1c(-c2ccc(Cl)cc2Cl)ncn1CCOCCO [18b, 2-{2-[5-Aminomethyl-4-(2,4-dichloro-phenyl)-imidazol-1-yl]-ethoxy}-ethanol] | 20.8
NCc1c(-c2ccc(Cl)cc2Cl)ncn1CCCNC1CCCCC1 [19b, {3-[5-Aminomethyl-4-(2,4-dichloro-phenyl)-imidazol-1-yl]-propyl}-cyclohexyl-amine] | 45.1
NCc1c(-c2ccc(Cl)cc2Cl)ncn1CCNc1ccc([N+](=O)[O-])cn1 [20b, {2-[5-Aminomethyl-4-(2,4-dichloro-phenyl)-imidazol-1-yl]-ethyl}-(5-nitro-pyridin-2-yl)-amine] | 8.2
CC(N)c1c(-c2ccc(Cl)cc2Cl)ncn1CCCN1CCCC1=O (stereo not shown) [22b, 1-{3-[5-(1-Amino-ethyl)-4-(2,4-dichloro-phenyl)-imidazol-1-yl]-propyl}-pyrrolidin-2-one] | 30.7
NCc1c(-c2ccc(Cl)cc2Cl)ncn1Cc1ccc(Br)cc1 [25b, C-[3-(4-Bromo-benzyl)-5-(2,4-dichloro-phenyl)-3H-imidazol-4-yl]-methylamine] | 6.4
NCc1c(-c2ccc(Cl)cc2Cl)ncn1CCN1CCCC1 [26b, C-[5-(2,4-Dichloro-phenyl)-3-(2-pyrrolidin-1-yl-ethyl)-3H-imidazol-4-yl]-methylamine] | 40.6
Cc1cnc(Cn2cnc(-c3ccc(Cl)cc3Cl)c2CN)cn1 [27b, C-[5-(2,4-Dichloro-phenyl)-3-(5-methyl-pyrazin-2-ylmethyl)-3H-imidazol-4-yl]-methylamine] | 19.9
NCc1c(-c2ccc(Cl)cc2Cl)ncn1CCCN1CCCC1=O [29b, 1-{3-[5-Aminomethyl-4-(2,4-dichloro-phenyl)-imidazol-1-yl]-propyl}-pyrrolidin-2-one] | 22.6
NCCCc1c(-c2ccc(Cl)cc2Cl)ncn1Cc1cc(Br)ccc1F [30b, 3-[3-(5-Bromo-2-fluoro-benzyl)-5-(2,4-dichloro-phenyl)-3H-imidazol-4-yl]-propylamine] | 17.2
NCc1c(-c2ccc(Cl)cc2Cl)ncn1CC(c1ccccc1)c1ccccc1 [31b, C-[5-(2,4-Dichloro-phenyl)-3-(2,2-diphenyl-ethyl)-3H-imidazol-4-yl]-methylamine] | 45.1
CC(N)c1c(-c2ccc(Cl)cc2Cl)ncn1CCCCCCO (stereo not shown) [34b, 6-[5-(1-Amino-ethyl)-4-(2,4-dichloro-phenyl)-imidazol-1-yl]-hexan-1-ol] | 38.8

Next, values leading:

IC50 [µM] | Structure (SMILES)
11.8 | COc1ccc(Cn2cnc(-c3ccc(Cl)cc3Cl)c2CN)cc1 [35b, C-[5-(2,4-Dichloro-phenyl)-3-(4-methoxy-benzyl)-3H-imidazol-4-yl]-methylamine]
25.3 | CC(N)c1c(-c2ccc(Cl)cc2Cl)ncn1Cc1cc(F)ccc1F (stereo not shown) [36b, 1-[5-(2,4-Dichloro-phenyl)-3-(2,5-difluoro-benzyl)-3H-imidazol-4-yl]-ethylamine]
48.7 | NCCc1c(-c2ccc(Cl)cc2Cl)ncn1CCc1cccc(Cl)c1 [37b, 2-[3-[2-(3-Chloro-phenyl)-ethyl]-5-(2,4-dichloro-phenyl)-3H-imidazol-4-yl]-ethylamine]
10.9 | NCc1c(-c2ccc(Cl)cc2Cl)ncn1Cc1c(F)cccc1F [40b, C-[5-(2,4-Dichloro-phenyl)-3-(2,6-difluoro-benzyl)-3H-imidazol-4-yl]-methylamine]
32.5 | NCc1c(-c2ccc(Cl)cc2Cl)ncn1CCNc1ccccc1 [41b, {2-[5-Aminomethyl-4-(2,4-dichloro-phenyl)-imidazol-1-yl]-ethyl}-phenyl-amine]
7.3 | NCc1c(-c2ccc(Cl)cc2Cl)ncn1CCCCc1ccccc1 [42b, C-[5-(2,4-Dichloro-phenyl)-3-(4-phenyl-butyl)-3H-imidazol-4-yl]-methylamine]
27.1 | COc1ccc(Cn2cnc(-c3ccc(Cl)cc3Cl)c2C(C)N)cc1 (stereo not shown) [43b, 1-[5-(2,4-Dichloro-phenyl)-3-(4-methoxy-benzyl)-3H-imidazol-4-yl]-ethylamine]
40.6 | CC(C)CCn1cnc(-c2ccc(Cl)cc2Cl)c1C(C)N (stereo not shown) [44b, 1-[5-(2,4-Dichloro-phenyl)-3-(3-methyl-butyl)-3H-imidazol-4-yl]-ethylamine]
27.1 | COc1ccc(CCn2cnc(-c3ccc(Cl)cc3Cl)c2CN)cc1 [45b, C-{5-(2,4-Dichloro-phenyl)-3-[2-(4-methoxy-phenyl)-ethyl]-3H-imidazol-4-yl}-methylamine]
2.8 | NCc1c(-c2ccc(Cl)cc2Cl)ncn1Cc1cccc(Cl)c1Cl [46b, C-[3-(2,3-Dichloro-benzyl)-5-(2,4-dichloro-phenyl)-3H-imidazol-4-yl]-methylamine]
10.9 | NCc1c(-c2ccc(Cl)cc2Cl)ncn1CCCO [47b, 3-[5-Aminomethyl-4-(2,4-dichloro-phenyl)-imidazol-1-yl]-propan-1-ol]
9.1 | NCc1c(-c2ccc(Cl)cc2Cl)ncn1CCc1ccc(Br)cc1 [49b, C-[3-[2-(4-Bromo-phenyl)-ethyl]-5-(2,4-dichloro-phenyl)-3H-imidazol-4-yl]-methylamine]
15.4 | NCc1c(-c2ccc(Cl)cc2Cl)ncn1Cc1cccc(C(F)(F)F)c1F [50b, C-[5-(2,4-Dichloro-phenyl)-3-(2-fluoro-3-trifluoromethyl-benzyl)-3H-imidazol-4-yl]-methylamine]
37.9 | CC(C)CCCCCCn1cnc(-c2ccc(Cl)cc2Cl)c1C(C)N (stereo not shown) [51b, 1-[5-(2,4-Dichloro-phenyl)-3-(7-methyl-octyl)-3H-imidazol-4-yl]-ethylamine]
5.5 | NCc1c(-c2ccc(Cl)cc2Cl)ncn1CCc1cccc(Cl)c1 [52b, C-[3-[2-(3-Chloro-phenyl)-ethyl]-5-(2,4-dichloro-phenyl)-3H-imidazol-4-yl]-methylamine]
18.1 | NCc1c(-c2ccc(Cl)cc2Cl)ncn1CCC(c1ccccc1)c1ccccc1 [53b, C-[5-(2,4-Dichloro-phenyl)-3-(3,3-diphenyl-propyl)-3H-imidazol-4-yl]-methylamine]
3.7 | NCc1c(-c2ccc(Cl)cc2Cl)ncn1CCc1ccc(F)cc1 [55b, C-{5-(2,4-Dichloro-phenyl)-3-[2-(4-fluoro-phenyl)-ethyl]-3H-imidazol-4-yl}-methylamine]
19.9 | NCc1c(-c2ccc(Cl)cc2Cl)ncn1CCO [56b, 2-[5-Aminomethyl-4-(2,4-dichloro-phenyl)-imidazol-1-yl]-ethanol]
9.1 | NCc1c(-c2ccc(Cl)cc2Cl)ncn1CCc1ccccc1 [57b, C-[5-(2,4-Dichloro-phenyl)-3-phenethyl-3H-imidazol-4-yl]-methylamine]
42.4 | NCc1c(-c2ccc(Cl)cc2Cl)ncn1CCN1CCCCC1 [58b, C-[5-(2,4-Dichloro-phenyl)-3-(2-piperidin-1-yl-ethyl)-3H-imidazol-4-yl]-methylamine]
20.8 | COCCn1cnc(-c2ccc(Cl)cc2Cl)c1CN [60b, C-[5-(2,4-Dichloro-phenyl)-3-(2-methoxy-ethyl)-3H-imidazol-4-yl]-methylamine]
